Reference: patent publication US20240174659A1, “COMPOUNDS AND METHODS FOR YAP/TEAD MODULATION AND INDICATIONS THEREFOR” (Opna Bio SA, priority 2021, published 2024)
Counter-ions that a name gives are not always drawn.

Tested on: TEAD-dependent transcription
Assay: Inhibitor activity against TEAD-dependent transcription in a cell-based reporter assay (MSTO-211H+12XGTIIC luciferase)
Conditions: Homo sapiens; MSTO-211H+12XGTIIC cells, 24 hours incubation, luciferase luminescence normalized to cell viability fluorescence, geometric mean; read-out: MSTO-211H GMean IC50 (uM) Cell Assay Reporter Cell Variant: TEAD
Excerpt: Determine Inhibitor Activity Against TEAD-Dependent Transcription in a Cell-Based Reporter Assay
The human mesothelioma cell line MSTO-211H was stably transfected with a pGL4.21 plasmid containing a synthetic promoter with 12 copies of the GTIIC TEAD response element that drives the expression of a luciferase reporter gene^1 using Lipofectamine transfection reagent (Thermo Fisher). Transfected cells were selected using puromycin and single cell clones expressing this construct (referred to as MSTO-211H+12XGTIIC) were generated by limiting dilution. MSTO-211H cells was characterized by genetic alterations in key components of the Hippo pathway^2, resulting in up-regulation of YAP/TEAD-mediated transcription. […] To evaluate TEAD inhibitors, the MSTO-211H+12XGTIIC cell line was seeded in a 96-well plate in 50 μL of culture media at 1×10^4 cells per well and incubated at 37° C. overnight. Serial dilutions of compounds (in total volume of 50 μL of culture media) were added to the cells and incubated at 37° C. for 24 hours. Each plate included cells treated with DMSO as high controls and cells treated with 20 μM of the reference compound K-975 (a known TEAD inhibitor)^3 as low controls. Cell viability was assayed by the addition of 25 μL of CellTiter-Fluor reagent (Promega) followed by a 30-minute incubation at 37° C. and quantification of the fluorescence signal (Ex400/Em505). Subsequently, luciferase expression was assayed by the addition of 25 μL of ONE-Glo reagent (Promega) followed by a 10-minute incubation at room temperature and quantification of the luminescence signal. The luminescence signal was normalized to the fluorescence signal to correct for any loss in cell viability over the 24-hour compound incubation period. The percentage of inhibition of normalized luminescence signal, indicative of compound-mediated inhibition of TEAD-dependent transcription, at individual compound concentrations relative to high and low controls was calculated. The data were analyzed by using nonlinear regression to generate IC50 values for individual compounds.

| SMILES | IC50 [µM] |
| --- | --- |
| C=CC(=O)N1CCc2ccc(NC3CCC4(CC3)CC4)cc2C1 [P-0097, 1-(7-(spiro[2.5]octan-6-ylamino)-3,4-dihydroisoquinolin-2(1H)-yl)prop-2-en-1-one] | 0.5 to 20 |
| O=C(/C=C/CN1CCCC1)N1CCc2ccc(Oc3ccc(C(F)(F)F)cc3)cc2C1 [P-0118, (E)-4-(pyrrolidin-1-yl)-1-(7-(4-(trifluoromethyl)phenoxy)-3,4-dihydroisoquinolin-2(1H)-yl)but-2-en-1-one] | 0.5 to 20 |
| C=CC(=O)N1CCc2ccc(OCC34CCC(CC3)C4)cc2C1 [P-0110, 1-(7-(bicyclo[2.2.1]heptan-1-ylmethoxy)-3,4-dihydroisoquinolin-2(1H)-yl)prop-2-en-1-one] | 0.001 to 0.5 |
| C=CC(=O)N1CCc2ccc(Oc3cccc(C(F)(F)F)c3)cc2C1 [P-0017, 1-(7-(3-(trifluoromethyl)phenoxy)-3,4-dihydroisoquinolin-2(1H)-yl)prop-2-en-1-one] | 0.001 to 0.5 |
| C=C(CO)C(=O)N1CCc2ccc(Oc3ccc(C(F)(F)F)cc3)cc2C1 [P-0126, 2-(hydroxymethyl)-1-(7-(4-(trifluoromethyl)phenoxy)-3,4-dihydroisoquinolin-2(1H)-yl)prop-2-en-1-one] | 0.001 to 0.5 |
| C=CC(=O)N1CCc2ccc(OCc3cccc(C(F)(F)F)c3)cc2C1 [P-0083, 1-(7-((3-(trifluoromethyl)benzyl)oxy)-3,4-dihydroisoquinolin-2(1H)-yl)prop-2-en-1-one] | 0.001 to 0.5 |
| C=CC(=O)N1CCc2cc(C)c(Oc3ccccc3)cc2C1 [P-0041, 1-(6-methyl-7-phenoxy-3,4-dihydroisoquinolin-2(1H)-yl)prop-2-en-1-one] | 0.001 to 0.5 |
| CN1CCN(C/C=C/C(=O)N2CCc3ccc(Oc4cccc(F)c4)cc3C2)CC1 [P-0040, (E)-1-(7-(3-fluorophenoxy)-3,4-dihydroisoquinolin-2(1H)-yl)-4-(4-methylpiperazin-1-yl)but-2-en-1-one] | > 20 |
| CN1CCN(C/C=C/C(=O)N2CCc3ccc(Oc4ccc(C(F)(F)F)cc4)cc3C2)CC1 [P-0121, (E)-4-(4-methylpiperazin-1-yl)-1-(7-(4-(trifluoromethyl)phenoxy)-3,4-dihydroisoquinolin-2(1H)-yl)but-2-en-1-one] | 0.5 to 20 |
| C=C(Cl)C(=O)N1CCc2ccc(Oc3ccc(C(F)(F)F)cc3)cc2C1 [P-0124, 2-chloro-1-(7-(4-(trifluoromethyl)phenoxy)-3,4-dihydroisoquinolin-2(1H)-yl)prop-2-en-1-one] | 0.001 to 0.5 |
| C=CC(=O)N1CCc2ccc(Oc3ccc(F)cc3F)cc2C1 [P-0008, 1-(7-(2,4-difluorophenoxy)-3,4-dihydroisoquinolin-2(1H)-yl)prop-2-en-1-one] | 0.001 to 0.5 |
| C=CS(=O)(=O)N1CCc2ccc(Oc3ccc(C(F)(F)F)cc3)cc2C1 [P-0114, 7-(4-(trifluoromethyl)phenoxy)-2-(vinylsulfonyl)-1,2,3,4-tetrahydroisoquinoline] | 0.5 to 20 |
| C=CC(=O)N1Cc2cc(OC3CCC(F)(F)CC3)ccc2C(C)C1 (stereo not shown) [P-0094, 1-(7-((4,4-difluorocyclohexyl)oxy)-4-methyl-3,4-dihydroisoquinolin-2(1H)-yl)prop-2-en-1-one] | 0.001 to 0.5 |
| C=CC(=O)N1CCc2ccc(Cc3ccc(F)c(C(F)(F)F)c3)cc2C1 [P-0067, 1-(7-(4-fluoro-3-(trifluoromethyl)benzyl)-3,4-dihydroisoquinolin-2(1H)-yl)prop-2-en-1-one] | 0.001 to 0.5 |
| C=CC(=O)N1CCc2ccc(N[C@H]3CC[C@@H](C(F)(F)F)CC3)cc2C1 [P-0065, 1-(7-(((1s,4s)-4-(trifluoromethyl)cyclohexyl)ami-no)-3,4-dihydroisoquinolin-2(1H)-yl)prop-2-en-1-one formate] | 0.001 to 0.5 |
| C=CC(=O)N1CCc2ccc(OC3CC4CCC3C4)cc2C1 (stereo not shown) [P-0076, 1-(7-(bicyclo[2.2.1]heptan-2-yloxy)-3,4-dihydroisoquinolin-2(1H)-yl)prop-2-en-1-one] | 0.001 to 0.5 |
| O=C(/C=C/CN1CCOCC1)N1CCc2ccc(Oc3cccc(F)c3)cc2C1 [P-0039, (E)-1-(7-(3-fluorophenoxy)-3,4-dihydroisoquinolin-2(1H)-yl)-4-morpholinobut-2-en-1-one] | > 20 |
| C=CC(=O)N1CCc2ccc(NCc3ccccc3)cc2C1 [P-0089, 1-(7-(benzylamino)-3,4-dihydroisoquinolin-2(1H)-yl)prop-2-en-1-one] | 0.001 to 0.5 |
| C=CC(=O)N1CCc2ccc(Oc3cccc(C#N)c3)cc2C1 [P-0092, 3-((2-acryloyl-1,2,3,4-tetrahydroisoquinolin-7-yl)oxy)benzonitrile] | 0.001 to 0.5 |

| SMILES | IC50 [µM] |
| --- | --- |
| C=CC(=O)N1CCc2ccc(NC3CC4(CCC4)C3)cc2C1 [P-0055, 1-(7-(spiro[3.3]heptan-2-ylamino)-3,4-dihydroisoquinolin-2(1H)-yl)prop-2-en-1-one formate] | 0.001 to 0.5 |
| C=CC(=O)N1CCc2ccc(Nc3cccc(C(F)(F)F)c3)cc2C1 [P-0025, 1-(7-((3-(trifluoromethyl)phenyl)amino) -3,4-dihydroisoquinolin-2(1H)-yl)prop-2-en-1-one] | 0.001 to 0.5 |
| C=CC(=O)N1CCc2ccc(Oc3ccnc(C(F)(F)F)c3)cc2C1 [P-0060, 1-(7-((2-(trifluoromethyl)pyridin-4-yl)oxy)-3,4-dihydroisoquinolin-2(1H)-yl)prop-2-en-1-one] | 0.001 to 0.5 |
| C=CC(=O)N1CCc2ccc(Cc3ccc(C(F)(F)F)cc3)cc2C1 [P-0072, 1-(7-(4-(trifluoromethyl)benzyl)-3,4-dihydroisoquinolin-2(1H)-yl)prop-2-en-1-one] | 0.001 to 0.5 |
| O=C(/C=C/CN1CCOCC1)N1CCc2ccc(Oc3ccc(C(F)(F)F)cc3)cc2C1 [P-0120, (E)-4-morpholino-1-(7-(4-(trifluoromethyl)phenoxy)-3,4-dihydroisoquinolin-2(1H)-yl)but-2-en-1-one] | 0.5 to 20 |
| C=CC(=O)N1CCc2ccc(Oc3ccc(C(F)(F)F)c(F)c3)cc2C1 [P-0045, 1-(7-(3-fluoro-4-(trifluoromethyl)phenoxy)-3,4-dihydroisoquinolin-2(1H)-yl)prop-2-en-1-one] | 0.001 to 0.5 |
| C=CC(=O)N1CCc2cc(C)c(Oc3ccc(C(F)(F)F)c(F)c3)cc2C1 [P-0099, 1-(7-(3-fluoro-4-(trifluoromethyl)phenoxy)-6-methyl-3,4-dihydroisoquinolin-2(1H)-yl)prop-2-en-1-one] | 0.001 to 0.5 |
| C=CC(=O)N1CCc2ccc(OCC34CC5CC(CC(C5)C3)C4)cc2C1 [P-0108, 1-(7-(((3r,5r,7r)-adamantan-1-yl)methoxy)-3,4-dihydroisoquinolin-2(1H)-yl)prop-2-en-1-one] | 0.001 to 0.5 |
| C=CC(=O)N1CCc2cc(C)c(Oc3ccc(F)cc3)cc2C1 [P-0043, 1-(7-(4-fluorophenoxy)-6-methyl-3,4-dihydroisoquinolin-2(1H)-yl)prop-2-en-1-one] | 0.001 to 0.5 |
| C=CC(=O)N1CCc2ccc(Oc3ccccn3)cc2C1 [P-0059, 1-(7-(pyridin-2-yloxy)-3,4-dihydroisoquinolin-2(1H)-yl)prop-2-en-1-one] | > 20 |
| C=CC(=O)N1CCc2ccc(OC3CCS(=O)(=O)CC3)cc2C1 [P-0084, 1-(7-((1,1-dioxidotetrahydro-2H-thiopyran-4-yl)oxy)-3,4-dihydroisoquinolin-2(1H)-yl)prop-2-en-1-one] | 0.001 to 0.5 |
| C=CC(=O)N1CCc2ccc(Oc3ccc(C(F)(F)F)cc3)cc2C1 [P-0018, 1-(7-(4-(trifluoromethyl)phenoxy)-3,4-dihydroisoquinolin-2(1H)-yl)prop-2-en-1-one] | 0.001 to 0.5 |
| C=CC(=O)N1Cc2cc(Oc3ccc(C(F)(F)F)cc3)ccc2C[C@H]1C(=O)OC [P-0112, methyl (S)-2-acryloyl-7-(4-(trifluoromethyl)phenoxy)-1,2,3,4-tetrahydroisoquinoline-3-carboxylate] | 0.001 to 0.5 |
| C=CC(=O)N1CCc2ccc(Oc3ccc(F)cc3)cc2C1 [P-0013, 1-(7-(4-fluorophenoxy)-3,4-dihydroisoquinolin-2(1H)-yl)prop-2-en-1-one] | 0.001 to 0.5 |
| C=CC(=O)N1CCc2ccc(Oc3ccc(Cl)c(F)c3)cc2C1 [P-0073, 1-(7-(4-chloro-3-fluorophenoxy)-3,4-dihydroisoquinolin-2(1H)-yl)prop-2-en-1-one] | 0.001 to 0.5 |
| C=C(F)C(=O)N1CCc2ccc(Oc3cccc(F)c3)cc2C1 [P-0037, 2-fluoro-1-(7-(3-fluorophenoxy)-3,4-dihydroisoquinolin-2(1H)-yl)prop-2-en-1-one] | 0.001 to 0.5 |
| C=CC(=O)N1CCc2ccc(Nc3ccc(C(F)(F)F)nc3)cc2C1 [P-0012, 1-(7-((6-(trifluoromethyl)pyridin-3-yl)amino)-3,4-dihydroisoquinolin-2(1H)-yl)prop-2-en-1-one] | 0.5 to 20 |
| C=CC(=O)N1CCc2cc(C)c(Oc3cccc(F)c3)cc2C1 [P-0042, 1-(7-(3-fluorophenoxy)-6-methyl-3,4-dihydroisoquinolin-2(1H)-yl)prop-2-en-1-one] | 0.001 to 0.5 |
